{"source": "patent US20250270610A1", "about": "“Improving the Efficiency of PAL-Catalyzed Protein Ligation By A Cascade Enzymatic Scheme” (priority 2022, published 2025)", "key": {"[1]": {"system": "A431 cells which overexpresses EGFR", "assay": "Flow cytometry assay of binding to A431 cells", "format": "cell-based", "conditions": "100 nM, 30 min on ice; FIG. 5b and c (confocal and flow cytometry)", "experimental": "FIG. 20 depicts the fluorescence intensity (measured by flow cytometry, λex=488 nm) of untreated A431 and MCF7 cells (ctrl) shown in dark grey fill (Blank), and cells treated with either GFP (100 nM, 30 min), or with ZEGFR-Fc-GFP (100 nM, 30 min) (shown by arrow), respectively. Forward scatter (FSC-A) versus side scatter (SSC-A) were used to gate intact cells.\nTo study binding capacities of ZEGFR-Fc-GFP, A-431 (ATCC, USA) and MCF-7 (ATCC, US) live cells were washed three times with PBS (HyClone, USA), trypsinized by 0.05% Trypsin-EDTA (Gibco, USA), and then resuspended in chilled DMEM (Gibco, USA) with 10% FBS (Gibco, USA). One million cells of each cell line were then incubated with ZEGFR-Fc-GFP (100 nM) and GFP (100 nM) on ice for 30 min. After incubation, the cells were washed with chilled PBS for three times and analyzed by the Fortessa X-20 flow cytometer (BD, USA). The cytometer was set to record 10,000 events per sample, to excite the fluorophore with 488 nm laser, and to collect emitting fluorescent signals in 530/30 nm. The generated raw data were analyzed by Flowjo™ 10 (BD, USA)."}, "EGFR-positive A431 cells": {"system": "EGFR-positive A431 cells", "assay": "Live cell confocal imaging of binding to A431 cells", "format": "cell-based", "conditions": "confocal fluorescence microscopy, 100 nM, 30 min on ice; FIG. 21", "experimental": "ZEGFR-FC-GFP staining of the membrane was much brighter than that for GFP when the top left panel of each block is compared. The plasma membrane was stained with PKH26 red-fluorescent dye and is shown in the lower left panel and merged image of each block. Scale bar=20 μm.\nTo visualize ZEGFR-Fc-GFP binding activities, A431 and MCF-7 cells were seeded on an 8-well chamber slide (ibidi, USA) and incubated at 37° C. under 5% CO2 overnight. The cells were stained with 2 μM PKH26 red-fluorescent dye (Sigma, USA) for 10 min at 37° C. The stained cells were then incubated with ZEGFR-Fc-GFP (100nM) and GFP (100nM) on ice for 30 min. After incubation, the cells were washed with chilled PBS for three times and fixed with cold 4% formaldehyde for 15 min. The fixed cells were imaged by the LSM 980 confocal microscope (Zeiss, Germany). Microscopic key settings are as follows: 1) excitation laser wavelengths: 488 nm and 561 nm; 2) emission fillers: 507-552 nm and 575-620 nm; 3) imaging mode: Z-stack. The 3D Z-stack images were processed into 2D images by the technique MIP (maximum intensity projection) using the Zen software (Zeiss, Germany)."}}, "data": [{"substance": "ZEGFR-Fc-GFP: dual-ligated product of dimeric fusion protein ZEGFR-Fc-NQL (affibody ZEGFR and IgG Fc domain) with GI-GGGSGGGS-GFP", "values": [{"measurement": "binding towards A431 cells", "setting": "[1]", "value": "specific binding"}, {"measurement": "staining of the membrane compared with GFP", "setting": "EGFR-positive A431 cells", "value": "much brighter"}]}]}
